Test results from publication PMC6832134, “Discovery of Novel Integrase Inhibitors Acting outside the Active Site Through High-Throughput Screening” (Molecules, 2019).

What was measured:
IN-DNA binding = biological target: T1, IN-DNA binding (Human immunodeficiency virus type 1 group M subtype B, UniProt P12497); assay: IN-DNA binding by fluorescence anisotropy; design: species or system HIV-1
T1 construct: 250 nM of recombinant HIV-1 integrase; made in house; host or cells: E. coli RosettaII
Excerpt: Although the CCD alone harbors all of the structural determinants of the active site to support the catalytic activity, the NTD and CTD have been implicated in both the quaternary architecture of the enzyme and DNA binding. Because outer domains (NTD and/or CTD) appeared important in the inhibition of IN by NSC34931, we wondered if stilbene disulfonic acid derivatives might compete with DNA binding. To test whether NSC34931 competed with substrate binding, we developed a plate-based assay with a fluorescent DNA substrate.
In addition, controls with DMSO (0 µM) or without IN (DNA only) were included. Data represent the mean of three independent experiments.
DNA binding was measured using a plate-based assay as previously described. […] Compounds or DMSO were incubated at room temperature for 5 min in the IN-activity buffer, in the absence or the presence of IN (400 nM). After addition of the DNA (10 nM), fluorescence anisotropy was measured every 30 s for 30 min using an Envision plate reader (Perkin Elmer, Waltham, MA, USA).

[1] = biological target: T2, HIV-1 IN mutant G140S/Q148H (Human immunodeficiency virus type 1 group M subtype B, UniProt P12497, G1287S/Q1295H); assay: Gel-based IN strand transfer assay, G140S/Q148H mutant; assay type: biochemical
T2 construct: RAL-resistant HIV-1 mutant integrases; made in house; host or cells: E. coli RosettaII
Experimental: IN reactions were carried out by adding drugs or an equivalent volume of 100% DMSO (dimethyl sulfoxide, used as the drug solvent) to a mixture of 20 nM duplex DNA (21T/21B) and 400 nM IN in 50 mM MOPS pH 7.2, 7.5 mM MgCl2, and 14 mM 2-mercaptoethanol. Reactions were performed at 37 °C for 2 h and quenched by addition of an equal volume of loading buffer [formamide containing 1% SDS (sodium dodecyl sulfate), 0.25% bromophenol blue, and xylene cyanol]. Reaction products were separated in 16% polyacrylamide denaturing sequencing gels. Dried gels were visualized using a Typhoon 8600 (GE Healthcare, Piscataway, NJ, USA). Densitometric analyses were performed using the ImageQuant 5.1 software from GE Healthcare. Data analyses (linear regression, IC50 determination, and standard deviation) were performed using Prism 6.05 software from GraphPad.

**Q.** With `O=S(=O)(O)c1cc(/N=N/c2cc(S(=O)(=O)O)c3ccccc3c2O)ccc1/C=C/c1ccc(/N=N/c2cc(S(=O)(=O)O)c3ccccc3c2O)cc1S(=O)(=O)O` [NSC34931] as the compound, how does the “fold lower concentration for IN-DNA binding inhibition than for inhibition of 3'-P and ST” value (IN-DNA binding) read?
**A.** about 10

**Q.** What about the “concentration giving full inhibition of IN-DNA binding” value (IN-DNA binding; fluorescence anisotropy) of the same compound?
**A.** 51 nM

**Q.** What about the “effect on IN substrate (DNA) binding” value (IN-DNA binding; fluorescence anisotropy over 30 min) of the same compound?
**A.** strongly and durably prevented IN-DNA binding

**Q.** What about the IC50 [1] of the same compound?
**A.** 120 nM
